One data set deals with XP490 TGs. Briefly: Tumorgraft growth in different hosts, mixed-model analysis, XP490. The format is in vivo, mice. How it is done:
(§1) Tumor samples were collected from patients under IRB-approved protocol as previously described. 6-to-8-week-old NOD/SCID mice originally obtained from the UT Southwestern Breeding Core were implanted subcutaneously with patient-derived TGs. Calipers were used to measure tumor dimensions. Volume was calculated by multiplying width, length, and height, thereby minimizing the potential bias of disproportionately weighing one particular dimension (at the cost of overestimating tumor volumes). […] Tumors were measured weekly. […] In accordance with UT Southwestern Institutional Animal Care and Use Committee policies, animals were euthanized once tumor diameters were larger than 2 cm.
Bar charts and series plots are presented as the mean±standard error of the mean (SEM) from more than three independent experiments. Unless otherwise indicated, the statistical significance was determined by t-test using GraphPad Prism. […] For the mixed model analysis, data were summarized as mean tumor growth per day with 95% confidence intervals, as well as by fold change between groups. A positive fold change indicates increased tumor growth rates in the first group compared to the second. Estimates were obtained from a three-way factorial mixed model analysis for treatment group, mouse type, and day of measurement. Baseline volume was also included as a term in the model to control for differences in starting volumes. An autoregressive (AR-1) covariance structure was used to account for the correlation among repeated measurements for each mouse. ANOVA and mixed model analyses were completed using SAS 9.4. A P-value <0.05 was considered significant.
(§2) XP144, XP164 and XP490 were then implanted into NOD/SCID^mTOR-ST mice.
A positive fold change indicates increased tumor growth rates in the first group. mTOR-WT, wild type mice; mTORST, heterozygous mTOR-ST mice; mTORST/ST, homozygous mTOR-ST mice.

The next data set concerns XP164 TGs. Briefly: Tumorgraft growth in different hosts, mixed-model analysis, XP164. The format is in vivo, mice. As to the method:
as §1, with “weekly. As indicated, vehicle-treated tumors and rapamycin-sensitive tumors were harvested around 28 days.” for “weekly.”
(§3) Bar charts and series plots are presented as the mean±standard error of the mean (SEM) from more than three independent experiments. Unless otherwise indicated, the statistical significance was determined by t-test using GraphPad Prism. For each XP line, ANOVA with post-hoc t-tests were used to test for differential (phospho)protein levels between the three arms in the RPPA analysis (vehicle-treated, rapamycin-sensitive, and rapamycin-resistant) with FDR-adjusted P-values. For the mixed model analysis, data were summarized as mean tumor growth per day with 95% confidence intervals, as well as by fold change between groups. A positive fold change indicates increased tumor growth rates in the first group compared to the second. Estimates were obtained from a three-way factorial mixed model analysis for treatment group, mouse type, and day of measurement. Baseline volume was also included as a term in the model to control for differences in starting volumes. An autoregressive (AR-1) covariance structure was used to account for the correlation among repeated measurements for each mouse. ANOVA and mixed model analyses were completed using SAS 9.4. A P-value <0.05 was considered significant.
as §2
(§4) The mTOR-ST mutation had the least effect on XP490. […] In Table 4, data are summarized with mean tumor growth rates per day (95% confidence intervals) with fold change between the two groups. A positive fold change indicates increased tumor growth rates in the first group. mTOR-WT, wild type mice; mTORST, heterozygous mTOR-ST mice; mTORST/ST, homozygous mTOR-ST mice. Rapa, rapamycin-treatment; Veh, vehicle-treatment

For data set [1] the following is noted: following temsirolimus administration in patients; cited from earlier work.
In a further data set the test system is XP144 TGs. Kind of data set: Tumorgraft growth in different hosts, mixed-model analysis, XP144. The class given is in vivo, mice. As to the method:
as §1, with “weekly. As indicated, vehicle-treated tumors and rapamycin-sensitive tumors were harvested around 28 days.” for “weekly.”
as §3, §2, §4

Consider `CO[C@H]1C[C@@H]2CC[C@@H](C)[C@@](O)(O2)C(=O)C(=O)N2CCCC[C@H]2C(=O)O[C@H]([C@H](C)C[C@@H]2CC[C@@H](O)[C@H](OC)C2)CC(=O)[C@H](C)/C=C(\C)[C@@H](O)[C@@H](OC)C(=O)[C@H](C)C[C@H](C)/C=C/C=C/C=C/1C` [rapamycin], for which the “inhibition of tumor growth” value is listed as 2 fold in the data set with XP490 TGs (XP490, mTOR-ST homozygous mice) and 6 fold in the data set on XP490 TGs (XP490, mice with the resistance mutation (heterozygous mTOR-ST)). For the same molecule, the “Mean tumor growth per day (95% CI)” value in the data set with XP490 TGs (XP490, mTOR^ST (heterozygous) mice) is recorded as 15.0 (11.7, 18.3) vs; in the data set on XP490 TGs (XP490, mTOR^WT mice), 5.1 (1.1, 9.1) vs; in the data set with XP164 TGs (XP164, mTOR^ST (heterozygous) mice), 67.6 (57.2, 78.0) vs; in the data set on XP164 TGs (XP164, mTOR^ST/ST (homozygous) mice) it was 69.5 (58.5, 80.6) vs; with XP164 TGs (XP164, mTOR^WT mice), 18.3 (12.6, 24.0) vs; with XP144 TGs (XP144, mTOR^ST (heterozygous) mice), 54.6 (36.8, 72.4) vs. The “Mean tumor growth per day (95% CI)” value with XP144 TGs (XP144, mTOR^WT mice, rapamycin 0.5 mg/kg IP every 48 hours) is reported as 20.4 (10.5, 30.3) vs. In addition, the “reduction of tumor growth” value in the data set on XP490 TGs (XP490, wild-type mice, vs vehicle) worked out at 11 fold; in the data set with XP144 TGs (XP144, wild-type mice, vs vehicle), 1.5 fold. Also, the “reduction of tumor growth inhibition in the resistant host” value with XP490 TGs (third TG line, resistant host vs wild type) is recorded as no more than 5 fold. Besides, the “effect on tumor growth” value with XP164 TGs (XP164, NOD/SCID^mTOR-ST mice) is “no significant effect”; in the data set with XP144 TGs (XP144, NOD/SCID^mTOR-ST mice), “no significant effect”. Besides, the “delay of tumor growth” value with XP164 TGs (XP164, wild-type mice, vs vehicle) is given as 3.7 fold. Moreover, the “share of the circulating drug” value in data set [1] is on record as 70%.
